The record followed here is patent publication US6855728B2, “Small-molecule modulators of hepatocyte growth factor / scatter factor activities” (North Shore-Long Island Jewish Health System, priority 2001, dated 2005).

For this test, the system named is Endothelial cells (HUVECs). The experiment in a line: Endothelial cell (HUVEC) proliferation assay, 3H thymidine incorporation, compound without added growth factor. It counts as cell-based, human. To be noted: for activation at 5 µg/mL / activation at 10 µg/mL: 24 h; for activation at 5 µg/mL / Stimulation at 5 microg/ml / Stimulation/Inhibition at 5 microg/ml (result in words): 5 microg/ml; for activation at 5 µg/mL / activation at 10 µg/mL / Stimulation at 5 microg/ml / Stimulation at 10 microg/ml: stimulation of endothelial cell proliferation. The procedure:
Cell proliferation assays Endothelial cells (HUVECs) were seeded in 48 well plates at a density of 10,000 to 20,000 cells per well in the normal growth medium (EGM-2-Clonetics) containing 2% fetal bovine serum, FGF, VEGF, IGF, ascorbic acid, EGF, GA, heparin and hydrocortisone. The cells were grown normally in the growth medium for 24 hr at 37 degrees C. and 5% CO2. The cells were then rinsed with RPMI-1% BSA and starved for 1-2 hrs. The stock solutions of all the compounds were made at a concentration of 10 mg/ml in DMSO and diluted in RPMI-1% BSA at a final concentrations of 1 to 12 microgram/ml. The cells were then washed and treated with the compounds and incubated for another 24 hr at 37 degrees C. Then ^3H thymidine (0.5 microgram/ml in RPMI-BSA) was added to the cells and incubated at 37 degrees C. for 4 to 5 hours. The unincorporated thymidine was removed by washing the cells four times with 1× PBS. Then the cells were lysed with 0.5M NaOH for 30 min and the radioactivity counted in the beta counter. […]
In general terms: Dividing cells build labelled thymidine or BrdU into new DNA.

Setting [1] is: Homo sapiens, HUVEC, 10 microg/ml.

Molecule `N#Cc1c(Cl)cccc1Oc1ccc(-c2ccnn2Cc2ccc(Cl)cc2)cc1` [2-chloro-6-(4-(1-(4-chlorobenzyl)-1H-pyrazol-5-yl)phenoxy)benzonitrile] yielded an activation at 5 µg/mL (Homo sapiens, HUVEC) of 60%. Moreover, the activation at 10 µg/mL under setting [1] came to 90%.
On the same counts, the results for `Cc1nn(C(=O)Nc2ccc(Cl)cc2Cl)c(C)c1Cc1csc2ccc(Cl)cc12` [4-[(5-chloro-1-benzothiophen-3-yl)methyl]-N-(2,4-dichlorophenyl)-3,5-dimethyl-1H-pyrazole-1-carboxamide] are 75% and 35%.
With `Cc1nn(-c2ccccc2)c(O)c1Cc1c(Cl)cccc1Cl` [4-(2,6-dichlorobenzyl)-3-methyl-1-phenyl-1H-pyrazol-5-ol], the “Stimulation at 5 microg/ml” value is 2.3 fold stimulation. Besides, the “Stimulation at 10 microg/ml” value (10 microg/ml) is listed as “two fold stimulation”.
In the case of `C=C(C)Cc1c(C)nn(S(=O)(=O)c2ccccc2)c1O` [3-methyl-4-(2-methylallyl)-1-(phenylsulfonyl)-1H-pyrazol-5-ol], the “Stimulation at 5 microg/ml” value is recorded as “two fold stimulation”. Moreover, the “Stimulation/Inhibition at 10 microg/ml (result in words)” value (“Stimulation/Inhibition at 10 microg/ml” for short) (10 microg/ml) is given as “Not significant”.
As to `O=C(c1ccc(Cl)cc1)n1ccc(-c2cc(-c3ccccc3)no2)n1` [(4-chlorophenyl)(3-(3-phenylisoxazol-5-yl)-1H-pyrazol-1-yl)methanone], the activation at 5 µg/mL (Homo sapiens, HUVEC) was determined as 54%. The molecule further came in with an activation at 10 µg/mL under setting [1] of 60%.
Turning to `O=C(c1ccc(Cl)cc1)n1ccc(C(c2ccccc2)c2ccccc2)n1` [(3-benzhydryl-1H-pyrazol-1-yl)(4-chlorophenyl)methanone], the “Stimulation/Inhibition at 5 microg/ml (result in words)” value (“Stimulation/Inhibition at 5 microg/ml” for short) is “No effect”. Under setting [1], this molecule had an activation at 10 µg/mL of 25%.
Regarding `O=C(c1ccc(Cl)cc1)n1ccc(-c2ccc(-c3cccs3)s2)n1` [(4-chlorophenyl)(3-(5-(2-thienyl)-2-thienyl)-1H-pyrazol-1-yl)methanone], the activation at 5 µg/mL (Homo sapiens, HUVEC) was found to be 40%. The activation at 10 µg/mL under setting [1] was 40%.
Consider `CNC(=O)n1ccc(C=Cc2cccs2)n1` [N-methyl-3-(2-(2-thienyl)vinyl)-1H-pyrazole-1-carboxamide], for which the activation at 5 µg/mL (Homo sapiens, HUVEC) stood at 70%. In addition, the activation at 10 µg/mL under setting [1] turned out to be 42%.
`CC(C)(C)C(=O)n1ccc(C=Cc2cccs2)n1` [2,2-dimethyl-1-(3-(2-(2-thienyl)vinyl)-1H-pyrazole-1-yl)propan-1-one]: the “Stimulation/Inhibition at 5 microg/ml” value is “No effect”. This molecule also had an activation at 10 µg/mL under setting [1] of 55%.
With `O=C(Nc1ccccc1)n1ccc(C=Cc2cccs2)n1` [N1-phenyl-3-(2-(2-thienyl)vinyl)-1H-pyrazole-1-carboxamide], where the note is “10 microg/ml”, the “Stimulation/Inhibition at 10 microg/ml” value is “Not significant”. The same molecule displayed an activation at 5 µg/mL (Homo sapiens, HUVEC) of 40%.
For `Cc1nn(C(=O)c2ccc([N+](=O)[O-])cc2)c(C)c1Cc1csc2ccc(Cl)cc12` [{4-[(5-chlorobenzo[b]thiophen-3-yl)methyl]-3,5-dimethyl-1H-pyrazol-1-yl}(4-nitrophenyl)methanone], under “10 microg/ml”, the “Stimulation at 10 microg/ml” value came out at 2.5 fold stimulation. The molecule also had an activation at 5 µg/mL (Homo sapiens, HUVEC) of 74%.
For `CNC(=O)n1nc(C)c(Cc2csc3ccc(Cl)cc23)c1C` [4-[(5-chloro-1-benzothiophen-3-yl)methyl]-N,3,5-trimethyl-1H-pyrazole-1-carboxamide], the “Stimulation at 5 microg/ml” value is on record as “two fold stimulation”. In addition, the “Stimulation at 10 microg/ml” value (10 microg/ml) is reported as “two fold stimulation”.
Consider `CS(=O)(=O)n1ccc(C=Cc2cccs2)n1` [1-(methylsulfonyl)-3-(2-(2-thienyl)vinyl)-1H-pyrazole], for which the “Stimulation/Inhibition at 10 microg/ml” value (10 microg/ml) is “Not significant”. Further, the activation at 5 µg/mL (Homo sapiens, HUVEC) was 74%.
Regarding `Cc1nn(S(=O)(=O)c2ccc(Cl)c(Cl)c2)c(C)c1Cc1c(F)cccc1Cl` [4-(2-chloro-6-fluorobenzyl)-1-((3,4-dichlorophenyl)sulfonyl)-3,5-dimethyl-1H-pyrazole], the “Activity at 2 microgram/ml Without HGF/SF: stimulation” value (2 microgram/ml, without HGF/SF, stimulation of HUVEC proliferation) is 73%.
`Cc1nc(-c2ccc(-c3cccs3)s2)sc1-c1ccn(C(=O)c2ccc(Cl)cc2)n1` [(4-chlorophenyl)(3-(2-(5-(2-thienyl)-2-thienyl)-4-methyl-1,3-thiazol-5-yl)-1H-pyrazol-1-yl)methanone] registered an activation at 5 µg/mL (Homo sapiens, HUVEC) of 20%. Under setting [1], the activation at 10 µg/mL was 33%.
For `Cc1nn(C(=O)Nc2cccc(Cl)c2)c(C)c1Cc1csc2ccc(Cl)cc12` [N1-(3-chlorophenyl)-4-[(5-chlorobenzo[b]thiophen-3-yl)methyl]-3,5-dimethyl-1H-pyrazole-1-carboxamide] the same measures were 86% and 40%.
For the molecule `Cc1nn(S(=O)(=O)c2cc(C(F)(F)F)cc(C(F)(F)F)c2)c(C)c1Cc1c(F)cccc1Cl` [4-(2-chloro-6-fluorobenzyl)-1-{[3,5-di(trifluoromethyl)phenyl]sulfonyl}-3,5-dimethyl-1H-pyrarole], the “Stimulation at 5 microg/ml” value amounted to 3.1 fold stimulation. The “Stimulation at 10 microg/ml” value (10 microg/ml) is 2.4 fold stimulation.
For `Cc1nn(C(=O)Nc2ccccc2)c(C)c1Cc1csc2ccc(Cl)cc12` [N1-phenyl-4-[(5-chlorobenzo[b]thiophen-3-yl)methyl]-3,5-dimethyl-1H-pyrazole-1-carboxamide], the “Stimulation at 5 microg/ml” value is given as “two fold stimulation”. Under setting [1], this molecule yielded an activation at 10 µg/mL of 45%.
Turning to `Cc1nn(S(=O)(=O)c2ccccc2Cl)c(C)c1-c1csc2ccc(Cl)cc12` [4(5-chlorobenzo(b)thiophen-3-yl)-1-(2-chlorophenyl)sulfonyl)-3,5dimethyl-1-H-pyrazole], the “Stimulation at 5 microg/ml” value is 1.8 fold stimulation. Besides, the “Stimulation/Inhibition at 10 microg/ml” value (10 microg/ml) is “Not significant”.
As to `O=C(Nc1ccc(Cl)cc1)n1ccc(C=Cc2cccs2)n1` [N1-(4-chlorophenyl)-3-(2-(2-thienyl)vinyl)-1H-pyrazole-1-carboxamide], the “Stimulation/Inhibition at 5 microg/ml” value is recorded as “No effect”. The activation at 10 µg/mL under setting [1] stood at 55%.
On to `CCc1cn(C(=O)c2cccs2)nc1-c1c(F)cccc1F` [[3-(2,6-difluorophenyl)-4-ethyl-1H-pyrazol-1-yl](2-thienyl)methanone], for which the “Stimulation at 5 microg/ml” value turned out to be 2.5 fold stimulation. For the same molecule, the “Stimulation at 10 microg/ml” value (10 microg/ml) is “two fold stimulation”.
As to `Cc1onc(-c2c(Cl)cccc2Cl)c1C(=O)NN` [3-(2,6-dichlorophenyl)-5-methylisoxazole-4-carbohydrazide], the “Activity at 2 microgram/ml Without HGF/SF (result in words)” value (2 microgram/ml, without HGF/SF) is given as “not significant”.
In the case of `COC(=O)c1c(C)nn(C(=O)c2ccc(Cl)cc2)c1-c1ccno1` [methyl 1-(4-chlorobenzoyl)-5-isoxazol-5-yl-3-methyl-1H-pyrazole-4-carboxylate], the “Stimulation/Inhibition at 5 microg/ml” value is on record as “Not significant”. The molecule also displayed an activation at 10 µg/mL under setting [1] of 33%.
For `CCc1c[nH]nc1-c1c(F)cccc1F` [3-(2,6-difluorophenyl)-4-ethyl-1H-pyrazole], the “Stimulation at 5 microg/ml” value is on record as “two fold stimulation”. This molecule also had an activation at 10 µg/mL under setting [1] of 86%.
`Cc1nn(C(=O)c2ccc(Cl)cc2)c(C)c1Sc1nccn1C` [(4-chlorophenyl)(3,5-dimethyl-4-((1-methyl-1H-imidazol-2-yl)thio)-1H-pyrazol-1-yl)methanone] came in with an activation at 5 µg/mL (Homo sapiens, HUVEC) of 52%. In addition, the activation at 10 µg/mL under setting [1] stood at 50%.
Usually inhibition stands for the drop in the measured response relative to a control, in per cent. Consider `CSc1cc(-c2ccc(Oc3ccccc3)cc2)nn1C(=O)c1ccc(Cl)cc1` [(4-chlorophenyl)(5-(methylthio)-3-(4-phenoxyphenyl)-1H-pyrazol-1-yl)methanone], for which the “Stimulation/Inhibition at 5 microg/ml” value is “No effect”. In addition, under “Homo sapiens, HUVEC, 10 microg/ml, inhibition of endothelial cell proliferation”, 10 µg/mL produced 40% inhibition.
With `CCc1cn(C(=O)C(C)(C)C)nc1-c1c(F)cccc1F` [1-[3-(2,6-difluorophenyl)-4-ethyl-1H-pyrazol-1-yl]-2,2-dimethylpropan-1-one], under “10 microg/ml”, the “Stimulation/Inhibition at 10 microg/ml” value is reported as “not significant”. For the setting “Homo sapiens, HUVEC”, this molecule registered an activation at 5 µg/mL of 58%.
